Experimental data from patent US7261875B2, “Dendritic poly (amino acid) carriers and methods of use” (Board of Regents, The University of Texas System, priority 2001, dated 2007).

Assays:
SK-Br3 cells = test: Fluorescence microscopy, non-specific interaction of near-infrared dyes with FR-negative cells; assay type: cell-based, human; conditions: SK-Br3 cells (do not express FR), 30 minute incubation, 37° C.
Description: The folic acid receptors (FR)-mediated binding of near-infrared gluorescent conjugate PAMAM-PG16-ICG-folate was studied using a human nasopharyngeal epidermal carcinoma cell line KB and a human breast carcinoma cell line SK-BR3. KB cells over-express the FR, whereas SK-Br3 cells have no detectable […]. Cells were incubated with PAMAM-PG16-ICG-folate, indocyanine green (ICG, Sigma-Aldrich Corp. St. Louis, Mo.) or ICG-NH2 at 37° C. on cover clips in a 24-well place (Beckton Dickinson Labware, Franklin Kakes, N.J.). Each well contained 0.5 ml Dulbecco's Modified Eagle's medium/nutrient Mixture F-12 Ham (DMEM/F12) containing 10% FBS (Gibco, Grand Island, N.Y.). The final concentration of the conjugate was calculated based on the equivalent does of folic acid and ICG-NH2. For the blocking study, free folic acid was added to the culture medium 30 minutes prior to the addition of the test agents. […] Data were recorded by a Leica DMR microscope (Leica Microsystems Inc. Brannockburn, Ill.) equipped with a 75 W Xenon lamp, Indo-Cyanine Green and FITC filters (775/845 and 480/535, excitation/emission, respectively) (Chroma Technology Corp., Brattleboro, Vt.), Hamamatsue B/W Chilled CCD camera (Hamamatsu Photonics, K.K. Hamamamatsu City, Japan) and Image-Pro Plus 4.5.1 software (Media Cybernetics, L. P., Silver Spring, Md.). […]

[1] = test system: human vulvar squamous A431 cell line; test: MTT assay, growth inhibition of A431 cells; assay type: cell-based; conditions: A-431, 72 hrs continuous incubation, equivalent TXL concentrations, read-out: estimated IC50, growth inhibition
Description: The MTT assay was used to quantitatively compare the effects of PAMAM-PG8-TXL, linear PG-TXL, and paclitaxel on cell growth in a human vulvar squamous A431 cell line. Cells were plated in a 96-well plate at a density of 2000 cells/well and then incubated with various concentrations of paclitaxel, PAMAM-PG8-TXL, or linear PG-TXL.

[2] = Body weight loss after treatment; conditions: 60 mg/kg, single i.v. dose
[3] = test system: syngeneic murine ovarian OCA-1 tumor; test: Tumor growth delay after a single intravenous dose; conditions: dose of 60 mg/kg, single i.v. dose, tumors 8 mm

SMILES | fluorescence / non-specific interaction with cells (SK-Br3 cells) | IC50 [1] | body weight loss [2] | growth delay [3]
CC1(C)C(/C=C/C=C/C=C/C=C2\N(CCCCS(=O)(=O)O)c3ccc4ccccc4c3C2(C)C)=[N+](CCCCS(=O)(=O)[O-])c2ccc3ccccc3c21 [ICG, indocyanine green] | did not have detectable non-specific interaction |  |  | 
CC(=O)O[C@H]1C(=O)[C@@]2(C)[C@H]([C@H](OC(=O)c3ccccc3)[C@]3(O)C[C@H](OC(=O)[C@H](O)[C@@H](NC(=O)c4ccccc4)c4ccccc4)C(C)=C1C3(C)C)[C@]1(OC(C)=O)CO[C@@H]1C[C@@H]2O [paclitaxel] |  | < 1 nM | 10% | 14 days
